From patent US12336981B2, “Compounds and compositions for the inhibition of NAMPT” (Valo Health, Inc., priority 2010, dated 2025)
Like-named read-outs stand apart in the source and are kept apart here.

Legend:
NAMPT = biological target: T1, NAMPT (Homo sapiens, UniProt P43490); experiment: Biochemical inhibition assay: NAMPT enzymatic reaction, NMN quantified by mass spectrometry; conditions: read-out: Biochem IC50
T1 construct: His tag; host or cells: E. coli
Experimental: Biochemical Inhibition Assay
NAMPT Protein Purification
Recombinant His-tagged NAMPT was produced in E. coli cells, purified over a Ni column, and further purified over a size-exclusion column by XTAL Biostructures.
The NAMPT Enzymatic Reaction
The NAMPT enzymatic reactions were carried out in Buffer A (50 mM Hepes pH 7.5, 50 mM NaCl, 5 mM MgCl2, and 1 mM THP) in 96-well V-bottom plates. The compound titrations were performed in a separate dilution plate by serially diluting the compounds in DMSO to make a 100× stock. […] The compound and enzyme mix was incubated for 15 minutes at room temperature, then 10 μL of 10× substrate and co-factors in Buffer A were added to the test well to make a final concentration of 1 μM NAM, 100 μM 5-Phospho-D-ribose 1-diphosphate (PRPP), and 2.5 mM Adenosine 5′-triphosphate (ATP). The reaction was allowed to proceed for 30 minutes at room temperature, then was quenched with the addition of 11 μL of a solution of formic acid and L-Cystathionine to make a final concentration of 1% formic acid and 10 μM L-Cystathionine. Background and signal strength was determined by addition (or non-addition) of a serial dilution of NMN to a pre-quenched enzyme and cofactor mix.
A mass spectrometry-based assay was used to measure the NAMPT reaction product (NMN) and the internal control (L-Cystathionine). NMN and L-Cystathionine were detected using the services of Biocius Lifesciences with the RapidFire system. In short, the NMN and L-Cystathionine are bound to a graphitic carbon cartridge in 0.1% formic acid, eluted in 30% acetonitrile buffer, and injected into a Sciex 4000 mass spectrometer. The components of the sample were ionized with electrospray ionization and the positive ions were detected. […] The fragments are quantified and the analyzed by the following method.
First the NMN signal is normalized to the L-Cystathionine signal by dividing the NMN signal by the L-Cystathionine signal for each well. The signal from the background wells are averaged and subtracted from the test plates. […] IC50s are Determined Using Excel and this Formula.

A2780 cells = experiment: In-vitro cell proliferation assay (SRB), A2780 cells; assay type: cell-based; conditions: A2780 cells, 72 hours, read-out: A2780 IC50
Experimental: In-Vitro Cell Proliferation Assay
After overnight incubation at 37° C. and 5% CO2, the compound titrations were performed in a separate dilution plate by serially diluting the compounds in DMSO to make a 1000× stock. The compounds were then further diluted to 10× final concentration in culture media, whereupon 20 μL of each dilution was added to the plated cells with controls (e.g. DMSO and blank) to make a final volume of 200 μL. The final DMSO concentration in each well was 0.1%. The plates were then incubated for 72 hours at 37° C. in a 5% CO2 incubator. The number of viable cells was then assessed using sulforhodamine B (SRB) assay. Cells were fixed at 4° C. for 1 hour with the addition of 50 μL 30% trichloroacetic acid (TCA) to make a final concentration of 6% TCA. The plates were washed four times with H2O and allowed to dry for at least 1 hour, whereupon 100 μL of a 4% SRB in 1% acetic acid solution was added to each well and incubated at room temperature for at least 30 minutes. The plates were then washed three times with 1% acetic acid, dried, and treated with 100 μL of 10 mM Tris-Base solution. The plates were then read in a microplate reader at an absorbance of 570 nm. Background was generated on a separate plate with media only.
Method for Determining % Inhibition
First, the signals from the background plate are averaged, then the background was subtracted from the test plates.
wherein X denotes the compound concentration 1, Y denotes the compound concentration 2, XX denotes the % inhibition at compound concentration 1 (X), and YY denotes the % inhibition at compound concentration 2 (Y).

[1] = Homo sapiens, A2780, 72 h, SRB assay

T1 sequence (P43490 whole entry): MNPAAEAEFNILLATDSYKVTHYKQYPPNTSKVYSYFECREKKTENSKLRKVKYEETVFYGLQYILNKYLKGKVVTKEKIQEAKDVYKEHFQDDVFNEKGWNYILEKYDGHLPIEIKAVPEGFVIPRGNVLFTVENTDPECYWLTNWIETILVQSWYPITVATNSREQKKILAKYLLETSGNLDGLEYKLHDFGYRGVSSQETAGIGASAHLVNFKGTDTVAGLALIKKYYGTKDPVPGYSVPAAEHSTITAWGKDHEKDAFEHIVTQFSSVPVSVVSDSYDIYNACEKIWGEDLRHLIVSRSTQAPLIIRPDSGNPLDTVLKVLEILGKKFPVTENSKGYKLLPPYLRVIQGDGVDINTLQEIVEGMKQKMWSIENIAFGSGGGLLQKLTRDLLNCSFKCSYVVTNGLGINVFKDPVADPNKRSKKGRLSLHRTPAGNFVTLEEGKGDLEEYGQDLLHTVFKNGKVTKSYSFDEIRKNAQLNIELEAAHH

| SMILES | IC50 (NAMPT; NAMPT enzymatic reaction) [nM] | IC50 (A2780 cells; [1]) [nM] | IC50 (A2780 cells; Homo sapiens, A2780, 72 h, SRB) [nM] | IC50 (NAMPT; NAMPT enzymatic assay) [nM] | IC50 (A2780 cells; SRB) [nM] |
| --- | --- | --- | --- | --- | --- |
| O=C(NCc1ccc(S(=O)(=O)c2cccc(OC(F)(F)F)c2)cc1)c1cc2cnccc2[nH]1 [N-[(4-{[3-(trifluoromethoxy)benzene]sulfonyl}phenyl)methyl]-1H-pyrrolo[3,2-c]pyridine-2-carboxamide] | 5 | 3 |  |  |  |
| Cc1ccc(S(=O)(=O)c2ccc(CNC(=O)c3cc4ccncc4o3)cc2)c(C)c1 | 21.8 |  | 24 |  |  |
| CCOc1ccc(S(=O)(=O)c2ccc(CNC(=O)c3ccc4nccn4c3)cc2)cc1F | 12.7 |  | 1.8 |  |  |
| O=C(NCc1ccc(S(=O)(=O)c2ccc(C(F)(F)F)c(Cl)c2)cc1)c1cnc2nccn2c1 |  |  | 1.8 | 2.8 |  |
| Cc1cn(C)c(S(=O)(=O)c2ccc(CNC(=O)c3cc4ccncc4o3)cc2)n1 [N-{[4-(1,4-dimethyl-1H-imidazole-2-sulfonyl)phenyl]methyl}furo[2,3-c]pyridine-2-carboxamide] |  |  | 100 to 1000 | 60.7 |  |
| CCCOc1ccc(S(=O)(=O)c2ccc(CNC(=O)c3cc4ccncc4s3)cc2)cc1 | 4.3 |  | 8.1 |  |  |
| O=C(NCc1ccc(S(=O)(=O)c2cccc(O)c2)cc1)c1ccc2nccn2c1 | 5 |  | 7 |  |  |
| CCCCc1ccc(S(=O)(=O)c2ccc(CNC(=O)c3cc4ccncc4o3)cc2)cc1 [N-({4-[(4-butylbenzene)sulfonyl]phenyl}methyl)furo[2,3-c]pyridine-2-carboxamide] | 18.1 |  | 26.5 |  |  |
| Cc1ccc(F)c(S(=O)(=O)c2ccc(CNC(=O)c3cnc4[nH]ncc4c3)cc2)c1 | 24.1 |  |  |  | 71.6 |
| Cc1cc(F)cc(S(=O)(=O)c2ccc(CNC(=O)c3cnc4[nH]ncc4c3)cc2)c1 | 9.5 |  | 5.6 |  |  |
| COc1cc(OC)cc(S(=O)(=O)c2ccc(CNC(=O)c3cnc4[nH]ncc4c3)cc2)c1 | 2.6 |  | 2.2 |  |  |
| COc1c(C)cc(S(=O)(=O)c2ccc(CNC(=O)c3cc4ccncc4s3)cc2)cc1C | 9.8 |  | 0.9 |  |  |
| O=C(NCc1ccc(S(=O)(=O)c2cccc(N3CCCC3)c2)cc1)c1ccc2ncsc2c1 |  |  | 1000 to 10000 | 8.8 |  |
| COc1ccc(C(C)(C)C)cc1S(=O)(=O)c1ccc(CNC(=O)c2ccc3nccn3c2)cc1 [N-({4-[(5-tert-butyl-2-methoxybenzene)sulfonyl]phenyl}methyl)imidazo[1,2-a]pyridine-6-carboxamide] |  |  | 6.77 | 29 |  |
| COc1cccc(S(=O)(=O)c2ccc(CNC(=O)c3cc4ccncc4s3)cc2)c1 [N-({4-[(3-methoxybenzene)sulfonyl]phenyl}methyl)thieno[2,3-c]pyridine-2-carboxamide] | 5 | 2.6 |  |  |  |
| O=C(NCc1ccc(S(=O)(=O)c2ccc(OC(F)(F)F)c(F)c2)cc1)c1cc2cnccc2[nH]1 [N-[(4-{[3-fluoro-4-(trifluoromethoxy)benzene]sulfonyl}phenyl)methyl]-1H-pyrrolo[3,2-c]pyridine-2-carboxamide] |  |  | 20.5 | 26.2 |  |
| COc1ccc(S(=O)(=O)c2ccc(CNC(=O)c3cc4cnccc4[nH]3)cc2)c(C(F)(F)F)c1 |  |  | 13 | 80.4 |  |
| O=C(NCc1ccc(S(=O)(=O)c2cccc(OCCN3CCOCC3)c2)cc1)c1ccc2nccn2c1 |  |  | 3.4 | 6.8 |  |
| Cn1ncc2ccc(S(=O)(=O)c3ccc(CNC(=O)c4cc5ccncc5s4)cc3)cc21 [N-{[4-(1-methyl-1H-indazole-6-sulfonyl)phenyl]methyl}thieno[2,3-c]pyridine-2-carboxamide] |  |  | 1.1 | 2.3 |  |
| O=C(NCc1ccc(S(=O)(=O)c2ccccc2Cl)cc1)c1ccc2nccn2c1 [N-({4-[(2-chlorobenzene)sulfonyl]phenyl}methyl)imidazo[1,2-a]pyridine-6-carboxamide] | 24.1 |  | 56.7 |  |  |

| SMILES | IC50 (NAMPT; NAMPT enzymatic reaction) [nM] | IC50 (A2780 cells; [1]) [nM] | IC50 (A2780 cells; Homo sapiens, A2780, 72 h, SRB) [nM] | IC50 (NAMPT; NAMPT enzymatic assay) [nM] | IC50 (A2780 cells; SRB) [nM] |
| --- | --- | --- | --- | --- | --- |
| O=C(NCc1ccc(S(=O)(=O)c2cccc(F)c2)cc1)c1cc2ccncc2o1 [N-({4-[(3-fluorobenzene)sulfonyl]phenyl}methyl)furo[2,3-c]pyridine-2-carboxamide] | 5.8 |  | 14.5 |  |  |
| O=C(NCc1ccc(S(=O)(=O)c2cncc3ccccc23)cc1)c1cc2ccncc2o1 [N-{[4-(isoquinoline-4-sulfonyl)phenyl]methyl}furo[2,3-c]pyridine-2-carboxamide] |  |  | 3 | 19 |  |
| COc1cccc(S(=O)(=O)c2ccc(CNC(=O)c3cc4ccncc4o3)cc2)c1OC | 9.3 |  | 13.6 |  |  |
| O=C(NCc1ccc(S(=O)(=O)c2ccc(OCC(F)(F)F)c(F)c2)cc1)c1cnc2nccn2c1 |  |  | 7.3 | 4.4 |  |
| COCc1cccc(S(=O)(=O)c2ccc(CNC(=O)c3cnc4[nH]ncc4c3)cc2)c1 [N-[(4-{[3-(methoxymethyl)benzene]sulfonyl}phenyl)methyl]-1H-pyrazolo[3,4-b]pyridine-5-carboxamide] |  |  |  | 38.7 | 39.4 |
| O=C(NCc1ccc(S(=O)(=O)c2ccc(-n3cccn3)cc2F)cc1)c1cnc2[nH]ncc2c1 |  |  | 34.4 | 38.9 |  |
| Cc1ccc(Cl)c(S(=O)(=O)c2ccc(CNC(=O)c3cnc4nccn4c3)cc2)c1Cl | 7.3 |  | 56 |  |  |
| COc1ccc(S(=O)(=O)c2ccc(CNC(=O)c3cc4ccncc4s3)cc2)c(Cl)c1 | 2.7 |  | 5.5 |  |  |
| Cn1cc2ccc(S(=O)(=O)c3ccc(CNC(=O)c4ccc5nccn5c4)cc3)cc2n1 [N-{[4-(2-methyl-2H-indazole-6-sulfonyl)phenyl]methyl}imidazo[1,2-a]pyridine-6-carboxamide] |  |  | 1.7 | 1.9 |  |
| O=C(NCc1ccc(S(=O)(=O)c2ccc(F)cc2Cl)cc1)c1cc2ccncc2o1 | 17.8 |  | 63.4 |  |  |
| CCOc1cc(F)ccc1S(=O)(=O)c1ccc(CNC(=O)c2cnc3[nH]ncc3c2)cc1 | 86.3 |  | 67 |  |  |
| Cc1cccc(S(=O)(=O)c2ccc(CNC(=O)c3ccc4nccn4c3)cc2)c1C [N-({4-[(2,3-dimethylbenzene)sulfonyl]phenyl}methyl)imidazo[1,2-a]pyridine-6-carboxamide] | 43.3 |  | 9.85 |  |  |
| COc1ccc(OC)c(S(=O)(=O)c2ccc(CNC(=O)c3cc4ccncc4s3)cc2)c1OC [N-({4-[(2,3,6-trimethoxybenzene)sulfonyl]phenyl}methyl)thieno[2,3-c]pyridine-2-carboxamide] |  |  | 5.5 | 12 |  |
| O=C(NCc1ccc(S(=O)(=O)c2ccc(F)c(C(F)(F)F)c2)cc1)c1cc2cnccc2[nH]1 |  |  | 4.3 | 16.4 |  |
| COc1ccccc1S(=O)(=O)c1ccc(CNC(=O)c2cc3cnccc3[nH]2)cc1 [N-({4-[(2-methoxybenzene)sulfonyl]phenyl}methyl)-1H-pyrrolo[3,2-c]pyridine-2-carboxamide] | 9 | 7 |  |  |  |
| Cn1ncc2ccc(S(=O)(=O)c3ccc(CNC(=O)c4ccc5nccn5c4)cc3)cc21 [N-{[4-(1-methyl-1H-indazole-6-sulfonyl)phenyl]methyl}imidazo[1,2-a]pyridine-6-carboxamide] |  |  | 3.9 | 5 |  |
| CCCOc1ccc(S(=O)(=O)c2ccc(CNC(=O)c3cc4ccncc4o3)cc2)cc1F | 6.8 |  | 11.8 |  |  |
| Cc1cc(Cl)cc(S(=O)(=O)c2ccc(CNC(=O)c3cnc4[nH]ncc4c3)cc2)c1 | 6.2 |  | 2.6 |  |  |
| CCNC(=O)c1ccc(S(=O)(=O)c2ccc(CNC(=O)c3cnc4nccn4c3)cc2)cc1 |  |  | 87.8 | 22.6 |  |
| COc1ccc(C(C)C)cc1S(=O)(=O)c1ccc(CNC(=O)c2cc3ccncc3o2)cc1 |  |  | 12.4 | 15.4 |  |
